Data: ChEMBL document CHEMBL3991601, “The target landscape of clinical kinase drugs” (Science, 2017)
Calls of active or inactive are those of the source. Cut-off read from the data, not from the text of the source, for most assays here: actives have a measured Kd and inactives only a lower limit.

Assays:
Activin receptor type-1 = molecular target: T1, Activin receptor type-1 (Homo sapiens, UniProt Q04771)
T1 sequence (Q04771 whole entry): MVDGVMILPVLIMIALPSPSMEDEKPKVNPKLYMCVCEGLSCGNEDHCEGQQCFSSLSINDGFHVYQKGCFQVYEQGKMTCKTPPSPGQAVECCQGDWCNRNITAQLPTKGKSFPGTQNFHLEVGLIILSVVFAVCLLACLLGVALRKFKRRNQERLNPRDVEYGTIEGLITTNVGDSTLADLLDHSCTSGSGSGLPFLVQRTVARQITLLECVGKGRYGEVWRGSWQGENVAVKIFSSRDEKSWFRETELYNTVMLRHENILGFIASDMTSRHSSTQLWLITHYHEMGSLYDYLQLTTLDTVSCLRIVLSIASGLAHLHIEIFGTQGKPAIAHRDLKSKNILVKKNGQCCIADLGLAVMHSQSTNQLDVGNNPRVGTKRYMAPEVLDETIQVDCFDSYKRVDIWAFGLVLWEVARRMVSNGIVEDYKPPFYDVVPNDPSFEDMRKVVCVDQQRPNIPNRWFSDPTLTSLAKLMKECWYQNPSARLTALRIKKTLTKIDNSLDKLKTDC

[1] = molecular target: Serine/threonine-protein kinase MRCK beta (Homo sapiens, UniProt Q9Y5S2)
Serine/threonine-protein kinase MRCK beta, sequence (Q9Y5S2 whole entry): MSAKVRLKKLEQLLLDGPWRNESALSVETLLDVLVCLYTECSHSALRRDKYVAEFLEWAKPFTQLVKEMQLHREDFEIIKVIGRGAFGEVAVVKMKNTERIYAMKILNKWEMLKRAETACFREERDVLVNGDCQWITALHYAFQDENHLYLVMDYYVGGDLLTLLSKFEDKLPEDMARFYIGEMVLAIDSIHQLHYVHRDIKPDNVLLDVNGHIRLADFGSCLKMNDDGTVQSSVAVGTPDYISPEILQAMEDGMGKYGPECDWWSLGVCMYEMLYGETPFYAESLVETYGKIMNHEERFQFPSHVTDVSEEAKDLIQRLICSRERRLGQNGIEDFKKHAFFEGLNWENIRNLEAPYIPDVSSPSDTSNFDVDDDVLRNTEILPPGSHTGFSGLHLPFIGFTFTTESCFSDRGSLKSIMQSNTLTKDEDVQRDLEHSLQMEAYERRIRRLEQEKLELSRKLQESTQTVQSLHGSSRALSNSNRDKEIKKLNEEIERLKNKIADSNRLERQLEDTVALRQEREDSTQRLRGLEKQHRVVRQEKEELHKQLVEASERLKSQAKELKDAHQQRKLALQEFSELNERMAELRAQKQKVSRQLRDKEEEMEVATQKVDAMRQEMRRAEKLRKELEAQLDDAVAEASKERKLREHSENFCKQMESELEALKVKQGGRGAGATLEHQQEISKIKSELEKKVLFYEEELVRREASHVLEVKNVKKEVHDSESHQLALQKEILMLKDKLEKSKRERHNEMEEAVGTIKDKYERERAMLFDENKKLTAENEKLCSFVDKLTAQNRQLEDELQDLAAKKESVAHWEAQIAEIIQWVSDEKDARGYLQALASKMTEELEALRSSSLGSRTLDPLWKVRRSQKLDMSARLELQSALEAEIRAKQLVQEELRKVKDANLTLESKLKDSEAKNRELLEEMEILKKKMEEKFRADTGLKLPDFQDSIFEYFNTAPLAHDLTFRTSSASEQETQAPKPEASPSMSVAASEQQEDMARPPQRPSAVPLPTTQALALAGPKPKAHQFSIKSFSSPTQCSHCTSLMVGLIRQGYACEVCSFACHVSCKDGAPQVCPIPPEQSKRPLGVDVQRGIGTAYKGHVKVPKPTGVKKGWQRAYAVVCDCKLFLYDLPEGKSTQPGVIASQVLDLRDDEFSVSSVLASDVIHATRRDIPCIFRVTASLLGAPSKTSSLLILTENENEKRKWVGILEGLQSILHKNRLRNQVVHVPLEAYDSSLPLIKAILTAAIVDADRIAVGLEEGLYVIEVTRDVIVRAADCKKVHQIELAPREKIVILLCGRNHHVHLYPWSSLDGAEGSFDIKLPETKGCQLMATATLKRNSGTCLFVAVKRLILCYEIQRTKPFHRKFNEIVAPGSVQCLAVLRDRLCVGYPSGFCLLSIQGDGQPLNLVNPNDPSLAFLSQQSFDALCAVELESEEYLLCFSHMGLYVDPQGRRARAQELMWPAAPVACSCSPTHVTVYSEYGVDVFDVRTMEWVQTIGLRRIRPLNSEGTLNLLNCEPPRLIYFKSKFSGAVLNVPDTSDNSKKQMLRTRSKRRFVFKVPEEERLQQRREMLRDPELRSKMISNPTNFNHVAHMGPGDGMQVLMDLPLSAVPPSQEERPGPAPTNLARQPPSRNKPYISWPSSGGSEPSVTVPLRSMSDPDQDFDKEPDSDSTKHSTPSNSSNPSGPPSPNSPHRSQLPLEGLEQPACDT

[2] = molecular target: T2, Mitogen-activated protein kinase kinase kinase 6 (Homo sapiens, UniProt O95382)
T2 sequence (O95382 whole entry): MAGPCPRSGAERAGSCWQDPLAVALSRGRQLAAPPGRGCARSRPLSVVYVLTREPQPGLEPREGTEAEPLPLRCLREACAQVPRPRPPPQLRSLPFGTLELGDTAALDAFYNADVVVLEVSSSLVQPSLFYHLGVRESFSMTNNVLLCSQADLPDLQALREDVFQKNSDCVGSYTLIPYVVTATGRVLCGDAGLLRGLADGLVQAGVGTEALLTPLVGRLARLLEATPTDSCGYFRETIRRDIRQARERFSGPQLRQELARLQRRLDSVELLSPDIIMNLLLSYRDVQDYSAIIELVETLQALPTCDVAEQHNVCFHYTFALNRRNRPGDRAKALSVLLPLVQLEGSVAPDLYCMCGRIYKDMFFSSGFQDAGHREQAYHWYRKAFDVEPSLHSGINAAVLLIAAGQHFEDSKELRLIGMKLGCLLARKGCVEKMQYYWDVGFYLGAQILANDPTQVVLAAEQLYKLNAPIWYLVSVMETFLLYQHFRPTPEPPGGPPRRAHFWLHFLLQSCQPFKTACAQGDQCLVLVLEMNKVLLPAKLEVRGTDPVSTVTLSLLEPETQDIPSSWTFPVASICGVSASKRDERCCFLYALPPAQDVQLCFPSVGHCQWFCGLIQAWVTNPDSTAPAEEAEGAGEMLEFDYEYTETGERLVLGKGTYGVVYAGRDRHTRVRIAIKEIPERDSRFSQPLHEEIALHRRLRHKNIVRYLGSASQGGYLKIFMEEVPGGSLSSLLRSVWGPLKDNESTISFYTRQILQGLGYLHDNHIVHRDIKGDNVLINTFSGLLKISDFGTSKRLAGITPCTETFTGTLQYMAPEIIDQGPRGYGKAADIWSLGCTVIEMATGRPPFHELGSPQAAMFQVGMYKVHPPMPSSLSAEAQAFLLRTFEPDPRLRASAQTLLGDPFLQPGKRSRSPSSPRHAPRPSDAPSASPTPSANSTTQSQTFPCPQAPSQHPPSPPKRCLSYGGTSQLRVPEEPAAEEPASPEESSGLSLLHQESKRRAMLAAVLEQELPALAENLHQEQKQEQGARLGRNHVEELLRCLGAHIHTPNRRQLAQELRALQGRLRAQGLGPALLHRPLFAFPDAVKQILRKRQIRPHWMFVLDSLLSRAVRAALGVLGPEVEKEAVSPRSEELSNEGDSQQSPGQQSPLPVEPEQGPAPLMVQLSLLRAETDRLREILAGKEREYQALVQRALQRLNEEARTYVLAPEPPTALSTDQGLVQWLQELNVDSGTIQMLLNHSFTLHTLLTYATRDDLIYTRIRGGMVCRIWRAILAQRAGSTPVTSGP

[3] = molecular target: Serine/threonine-protein kinase SIK2 (Homo sapiens, UniProt Q9H0K1)
Serine/threonine-protein kinase SIK2, sequence (Q9H0K1 whole entry): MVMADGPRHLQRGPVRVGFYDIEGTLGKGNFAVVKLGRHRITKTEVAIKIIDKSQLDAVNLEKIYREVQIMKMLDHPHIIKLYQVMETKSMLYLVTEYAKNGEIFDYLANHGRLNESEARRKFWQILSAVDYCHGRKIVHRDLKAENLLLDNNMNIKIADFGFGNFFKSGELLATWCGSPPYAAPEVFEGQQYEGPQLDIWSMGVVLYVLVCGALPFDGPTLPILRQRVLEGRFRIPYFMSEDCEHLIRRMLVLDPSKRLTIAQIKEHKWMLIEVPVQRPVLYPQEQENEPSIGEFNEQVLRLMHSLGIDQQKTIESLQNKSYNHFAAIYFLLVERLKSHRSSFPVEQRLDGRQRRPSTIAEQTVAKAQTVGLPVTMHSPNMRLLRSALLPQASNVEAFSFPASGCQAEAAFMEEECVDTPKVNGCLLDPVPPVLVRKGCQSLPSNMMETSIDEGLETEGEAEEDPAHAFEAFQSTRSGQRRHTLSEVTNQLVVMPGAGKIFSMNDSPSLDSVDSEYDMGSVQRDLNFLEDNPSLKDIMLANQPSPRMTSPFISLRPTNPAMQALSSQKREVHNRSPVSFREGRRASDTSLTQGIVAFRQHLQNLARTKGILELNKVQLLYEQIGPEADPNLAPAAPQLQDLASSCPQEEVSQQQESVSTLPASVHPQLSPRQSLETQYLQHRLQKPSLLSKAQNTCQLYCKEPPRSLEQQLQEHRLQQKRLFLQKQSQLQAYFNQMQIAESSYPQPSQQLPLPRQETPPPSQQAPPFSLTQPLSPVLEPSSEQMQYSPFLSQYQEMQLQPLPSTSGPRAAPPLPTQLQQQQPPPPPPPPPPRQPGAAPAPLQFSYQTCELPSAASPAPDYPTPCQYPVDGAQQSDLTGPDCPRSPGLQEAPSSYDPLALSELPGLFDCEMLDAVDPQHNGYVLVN

[4] = molecular target: TRAF2 and NCK-interacting protein kinase (Homo sapiens, UniProt Q9UKE5)
TRAF2 and NCK-interacting protein kinase, sequence (Q9UKE5 whole entry): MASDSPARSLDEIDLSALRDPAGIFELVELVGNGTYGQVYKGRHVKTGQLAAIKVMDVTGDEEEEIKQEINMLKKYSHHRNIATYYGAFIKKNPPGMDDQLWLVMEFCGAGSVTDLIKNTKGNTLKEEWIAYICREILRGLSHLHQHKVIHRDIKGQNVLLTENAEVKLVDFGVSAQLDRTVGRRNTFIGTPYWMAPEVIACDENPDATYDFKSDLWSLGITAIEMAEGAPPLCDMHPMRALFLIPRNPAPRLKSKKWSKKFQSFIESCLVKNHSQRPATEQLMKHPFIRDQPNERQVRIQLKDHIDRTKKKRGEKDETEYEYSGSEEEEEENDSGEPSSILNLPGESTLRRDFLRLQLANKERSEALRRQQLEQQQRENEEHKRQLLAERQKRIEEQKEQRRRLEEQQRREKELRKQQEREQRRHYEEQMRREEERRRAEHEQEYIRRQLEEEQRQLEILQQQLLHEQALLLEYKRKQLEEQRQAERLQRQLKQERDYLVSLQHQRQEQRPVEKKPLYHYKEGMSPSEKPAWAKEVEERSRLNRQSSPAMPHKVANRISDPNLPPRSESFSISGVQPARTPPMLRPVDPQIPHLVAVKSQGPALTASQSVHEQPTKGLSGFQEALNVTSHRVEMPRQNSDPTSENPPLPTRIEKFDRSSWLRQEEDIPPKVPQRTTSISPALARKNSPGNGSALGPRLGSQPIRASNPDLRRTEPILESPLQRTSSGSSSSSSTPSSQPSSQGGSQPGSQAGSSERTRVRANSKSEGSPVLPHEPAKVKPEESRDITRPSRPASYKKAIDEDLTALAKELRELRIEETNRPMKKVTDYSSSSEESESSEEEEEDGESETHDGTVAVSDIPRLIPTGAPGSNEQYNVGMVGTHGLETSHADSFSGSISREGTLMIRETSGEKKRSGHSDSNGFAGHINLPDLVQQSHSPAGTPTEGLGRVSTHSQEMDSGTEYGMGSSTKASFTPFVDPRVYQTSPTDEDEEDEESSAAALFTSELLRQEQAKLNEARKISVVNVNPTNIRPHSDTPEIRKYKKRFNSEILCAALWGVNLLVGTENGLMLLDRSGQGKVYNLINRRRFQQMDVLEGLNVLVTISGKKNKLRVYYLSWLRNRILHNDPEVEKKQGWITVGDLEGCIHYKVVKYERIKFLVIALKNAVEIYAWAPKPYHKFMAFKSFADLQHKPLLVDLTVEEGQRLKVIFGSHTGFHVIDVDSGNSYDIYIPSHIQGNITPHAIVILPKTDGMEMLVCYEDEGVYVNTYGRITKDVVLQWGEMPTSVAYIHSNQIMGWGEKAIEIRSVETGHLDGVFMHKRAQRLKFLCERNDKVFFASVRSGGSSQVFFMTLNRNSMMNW

Activated CDC42 kinase 1 = Activated CDC42 kinase 1 (Homo sapiens, UniProt Q07912)
Activated CDC42 kinase 1, sequence (Q07912 whole entry): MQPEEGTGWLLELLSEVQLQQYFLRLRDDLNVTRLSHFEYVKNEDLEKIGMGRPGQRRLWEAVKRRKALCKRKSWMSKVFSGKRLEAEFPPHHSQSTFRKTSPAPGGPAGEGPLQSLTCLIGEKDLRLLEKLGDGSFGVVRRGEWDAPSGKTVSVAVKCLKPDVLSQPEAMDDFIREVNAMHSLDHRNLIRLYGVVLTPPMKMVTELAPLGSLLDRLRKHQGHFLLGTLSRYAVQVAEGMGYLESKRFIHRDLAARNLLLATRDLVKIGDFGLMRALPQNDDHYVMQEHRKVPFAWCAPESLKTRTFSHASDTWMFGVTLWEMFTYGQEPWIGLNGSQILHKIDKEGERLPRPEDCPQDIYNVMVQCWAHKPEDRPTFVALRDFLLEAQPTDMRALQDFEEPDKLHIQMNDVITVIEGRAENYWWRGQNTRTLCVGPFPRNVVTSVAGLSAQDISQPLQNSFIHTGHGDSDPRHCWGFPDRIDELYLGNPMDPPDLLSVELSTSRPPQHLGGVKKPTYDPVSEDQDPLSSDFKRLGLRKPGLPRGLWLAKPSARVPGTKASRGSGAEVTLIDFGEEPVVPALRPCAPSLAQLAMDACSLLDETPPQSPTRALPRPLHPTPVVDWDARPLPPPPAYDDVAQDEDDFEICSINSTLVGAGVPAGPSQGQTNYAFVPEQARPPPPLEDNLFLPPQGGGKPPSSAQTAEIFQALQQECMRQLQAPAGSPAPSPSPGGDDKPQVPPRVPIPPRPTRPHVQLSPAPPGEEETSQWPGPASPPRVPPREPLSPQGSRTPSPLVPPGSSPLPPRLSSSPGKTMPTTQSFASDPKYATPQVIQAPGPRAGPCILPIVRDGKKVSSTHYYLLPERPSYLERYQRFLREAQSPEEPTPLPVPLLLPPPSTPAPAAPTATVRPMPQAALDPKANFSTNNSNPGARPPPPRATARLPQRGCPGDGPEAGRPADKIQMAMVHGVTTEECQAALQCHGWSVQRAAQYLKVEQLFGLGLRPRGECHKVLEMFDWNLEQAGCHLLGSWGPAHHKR
Note: in the data inactive means no Kd found up to 30 µM.

| SMILES | Kd (Activin receptor type-1) | Kd [1] | Kd [2] | Kd [3] | Kd [4] | Kd (Activated CDC42 kinase 1) |
| --- | --- | --- | --- | --- | --- | --- |
| CO[C@H]1C[C@@H]2CC[C@@H](C)[C@@](O)(O2)C(=O)C(=O)N2CCCC[C@H]2C(=O)O[C@H]([C@H](C)C[C@@H]2CC[C@@H](OCCO)[C@H](OC)C2)CC(=O)[C@H](C)/C=C(\C)[C@@H](O)[C@@H](OC)C(=O)[C@H](C)C[C@H](C)/C=C/C=C/C=C/1C [EVEROLIMUS] | > 30 µM (inactive) | > 30 µM (inactive) | > 30 µM (inactive) | > 30 µM (inactive) | > 30 µM (inactive) | > 30 µM (inactive) |
| COCCNCc1ccc(-c2cc3nccc(Oc4ccc(NC(=S)NC(=O)Cc5ccc(F)cc5)cc4F)c3s2)nc1 [GLESATINIB] | > 30 µM (inactive) | > 30 µM (inactive) | > 30 µM (inactive) | > 30 µM (inactive) | > 30 µM (inactive) | > 30 µM (inactive) |
| O=C1NC(=O)/C(=C/c2ccc3nccc(-c4ccncc4)c3c2)S1 [GSK-1059615] | > 30 µM (inactive) | > 30 µM (inactive) | > 30 µM (inactive) | > 30 µM (inactive) | > 30 µM (inactive) | > 30 µM (inactive) |
| CC[C@H](Nc1ncnc2[nH]cnc12)c1nc2cccc(F)c2c(=O)n1-c1ccccc1 [IDELALISIB] | > 30 µM (inactive) | > 30 µM (inactive) | > 30 µM (inactive) | > 30 µM (inactive) | > 30 µM (inactive) | > 30 µM (inactive) |
| Cn1cc(-c2ccc3nnc(C(F)(F)c4ccc5ncccc5c4)n3n2)cn1 [JNJ-38877605] | > 30 µM (inactive) | > 30 µM (inactive) | > 30 µM (inactive) | > 30 µM (inactive) | > 30 µM (inactive) | > 30 µM (inactive) |
| C1=C/COCc2cc(ccc2OCCN2CCCC2)Nc2nccc(n2)-c2cccc(c2)COC/1 [PACRITINIB] | 0.022 µM (active) | > 30 µM (inactive) | > 30 µM (inactive) | > 30 µM (inactive) | 0.089 µM | 9.33 µM (active) |
| Cc1ccc(-n2nc(C(C)(C)C)cc2NC(=O)NCc2cc(F)ccc2Oc2ccc3c(cnn3CCO)c2)cc1 [PEXMETINIB] | > 30 µM (inactive) | > 30 µM (inactive) | > 30 µM (inactive) | > 30 µM (inactive) | > 30 µM (inactive) | > 30 µM (inactive) |
| CNC(=O)c1ccc(C)c(-n2c(C)cc(OCc3ccc(F)cc3F)c(Br)c2=O)c1 [PH-797804] | > 30 µM (inactive) | > 30 µM (inactive) | > 30 µM (inactive) | > 30 µM (inactive) | > 30 µM (inactive) | > 30 µM (inactive) |
| C=CC(=O)N1CCC(Oc2cc3c(Nc4ccc(Cl)c(Cl)c4F)ncnc3cc2OC)CC1 [POZIOTINIB] | > 30 µM (inactive) | > 30 µM (inactive) | > 30 µM (inactive) | > 30 µM (inactive) | > 30 µM (inactive) | > 30 µM (inactive) |
| CN1CCC(CNc2ccc3ncc(-c4cccc(OC(F)(F)F)c4)n3n2)CC1 [SGI-1776] | 0.458 µM (active) | > 30 µM (inactive) | > 30 µM (inactive) | 6.12 µM (active) | > 30 µM (inactive) | > 30 µM (inactive) |
| C[C@@H]1CN(Cc2ccc(F)cc2)[C@@H](C)CN1C(=O)c1cc2c(C(=O)C(=O)N(C)C)cn(C)c2cc1Cl [TALMAPIMOD] | > 30 µM (inactive) | > 30 µM (inactive) | > 30 µM (inactive) | > 30 µM (inactive) | > 30 µM (inactive) | > 30 µM (inactive) |
| CN1CCC(COc2cnc(-c3cccc(Cn4nc(-c5cccc(C#N)c5)ccc4=O)c3)nc2)CC1 [TEPOTINIB] | > 30 µM (inactive) | > 30 µM (inactive) | > 30 µM (inactive) | > 30 µM (inactive) | > 30 µM (inactive) | > 30 µM (inactive) |
| O=c1sn(-c2cccc3ccccc23)c(=O)n1Cc1ccccc1 [TIDEGLUSIB] | > 30 µM (inactive) | > 30 µM (inactive) | > 30 µM (inactive) | > 30 µM (inactive) | > 30 µM (inactive) | > 30 µM (inactive) |
| CC(=O)Nc1cccc(-n2c(=O)n(C3CC3)c(=O)c3c(Nc4ccc(I)cc4F)n(C)c(=O)c(C)c32)c1 [TRAMETINIB] | > 30 µM (inactive) | > 30 µM (inactive) | > 30 µM (inactive) | > 30 µM (inactive) | > 30 µM (inactive) | > 30 µM (inactive) |
| CC(C)Nc1cc(-c2c[nH]c(C(=O)N[C@H](CO)c3cccc(Cl)c3)c2)c(Cl)cn1 [ULIXERTINIB] | > 30 µM (inactive) | > 30 µM (inactive) | > 30 µM (inactive) | > 30 µM (inactive) | > 30 µM (inactive) | > 30 µM (inactive) |

More lines, now with the values ahead:

| Kd (Activin receptor type-1) | Kd [1] | Kd [2] | Kd [3] | Kd [4] | Kd (Activated CDC42 kinase 1) | SMILES |
| --- | --- | --- | --- | --- | --- | --- |
| > 30 µM (inactive) | > 30 µM (inactive) | 1.57 µM | > 30 µM (inactive) | 0.565 µM (active) | > 30 µM (inactive) | COc1cc2nccc(Oc3ccc(NC(=O)NC4CC4)c(Cl)c3)c2cc1C(N)=O [LENVATINIB] |
| > 30 µM (inactive) | > 30 µM (inactive) | > 30 µM (inactive) | > 30 µM (inactive) | > 30 µM (inactive) | > 30 µM (inactive) | Cn1cc(-c2ccc(F)c(C(F)(F)F)c2)nc1C1CCN(c2ncnc3[nH]ncc23)CC1 [LY-2584702] |
| 0.121 µM (active) | > 30 µM (inactive) | > 30 µM (inactive) | > 30 µM (inactive) | > 30 µM (inactive) | 0.473 µM (active) | O=C(O)[C@]1(Cc2cccc(Nc3nccs3)n2)CC[C@@H](Oc2cccc(Cl)c2F)CC1 [MK-5108] |
| > 30 µM (inactive) | > 30 µM (inactive) | > 30 µM (inactive) | > 30 µM (inactive) | > 30 µM (inactive) | > 30 µM (inactive) | CNC(=O)c1cc(Oc2ccc(NC(=O)Nc3ccc(Cl)c(C(F)(F)F)c3)c(F)c2)ccn1 [REGORAFENIB] |
| > 30 µM (inactive) | > 30 µM (inactive) | > 30 µM (inactive) | 2.49 µM (active) | > 30 µM (inactive) | > 30 µM (inactive) | CN(C)C(=O)c1cc2cnc(Nc3ccc(N4CCNCC4)cn3)nc2n1C1CCCC1 [RIBOCICLIB] |
| > 30 µM (inactive) | > 30 µM (inactive) | > 30 µM (inactive) | > 30 µM (inactive) | > 30 µM (inactive) | > 30 µM (inactive) | COc1cc(OC)c(/C=C/S(=O)(=O)Cc2ccc(OC)c(NCC(=O)O)c2)c(OC)c1 [RIGOSERTIB] |
| > 30 µM (inactive) | > 30 µM (inactive) | > 30 µM (inactive) | > 30 µM (inactive) | > 30 µM (inactive) | > 30 µM (inactive) | CNC(=O)CN1CCC(Oc2cc3c(Nc4cccc(Cl)c4F)ncnc3cc2OC)CC1 [SAPITINIB] |
| > 30 µM (inactive) | > 30 µM (inactive) | > 30 µM (inactive) | > 30 µM (inactive) | > 30 µM (inactive) | > 30 µM (inactive) | C[C@@H](c1ccc2nccn2c1)n1nnc2ncc(-c3cnn(C)c3)nc21 [SAVOLITINIB] |
| > 30 µM (inactive) | > 30 µM (inactive) | > 30 µM (inactive) | > 30 µM (inactive) | > 30 µM (inactive) | > 30 µM (inactive) | CN1N=C(N)c2cn([C@@H]3O[C@H](COP(=O)(O)O)[C@@H](O)[C@H]3O)c3ncnc1c23 [TRICIRIBINE PHOSPHATE] |
